Source: publication PMC3721678 (Biochemistry, 2010)

Experiments:
[1] = target: T1, Helix pomatia agglutinin (HPA) (Helix pomatia, UniProt Q2F1K8); test: SPR competition assay; assay type: binding; settings: 8 µM mIgA1κ as competed analyte, 25 °C; competitive
T1 sequence (Q2F1K8 20-121): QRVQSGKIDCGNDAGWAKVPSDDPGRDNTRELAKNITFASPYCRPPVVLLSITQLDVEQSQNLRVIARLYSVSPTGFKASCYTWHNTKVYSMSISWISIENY

[2] = tested on: Helix aspersa agglutinin (HAA); test: SPR competition assay; assay type: binding, Cornu aspersum; settings: 8 µM mIgA1κ as competed analyte, 25 °C; competitive

CC(=O)N[C@H]1C(O)O[C@H](CO)[C@H](O)[C@@H]1O (some centres unmarked) [GalNAc]
IC50 [1]: 220 ± 20 µM
IC50 [2]: 81 ± 8 µM
